Assays:
Type in all cases: functional
SK-N-SH [1] = assay: Antiproliferative activity against human SK-N-SH cells assessed as cellular metabolic activity at 1 mM incubated for 24 hrs by MTT assay
IMR-32 [2] = assay: Antiproliferative activity against human IMR-32 cells assessed as cellular metabolic activity at 1 mM incubated for 24 hrs by resazurin assay
B104 [3] = assay: Antiproliferative activity against rat B104 cells assessed as cellular metabolic activity at 1 mM incubated for 24 hrs by MTT assay
SK-N-SH [4] = assay: Antiproliferative activity against human SK-N-SH cells assessed as cellular metabolic activity at 1 mM incubated for 24 hrs by resazurin assay
B104 [5] = assay: Antiproliferative activity against rat B104 cells assessed as cellular metabolic activity at 1 mM incubated for 24 hrs by resazurin assay
IMR-32 [6] = assay: Antiproliferative activity against human IMR-32 cells assessed as cellular metabolic activity at 1 mM incubated for 24 hrs by MTT assay

N[C@@H](CCC(=O)N[C@@H](CSN=O)C(=O)NCC(=O)O)C(=O)O [S-NITROSOGLUTATHIONE]
Activity (SK-N-SH [1]): 16% | Activity (IMR-32 [2]): 13% | Activity (B104 [3]): 18% | Activity (SK-N-SH [4]): 15% | Activity (B104 [5]): 17% | Activity (IMR-32 [6]): 14%

— ChEMBL document CHEMBL5136975, “NO-HDAC dual inhibitors” (Eur J Med Chem, 2022)
